{"source": "patent US20060216350A1", "about": "“Ganglionic blocking agents for the treatment of epithelial diseases” (priority 2005, published 2006)", "origin": "cited, not measured here", "test_system": "hand warts", "conditions": "patients with hand warts; Sterling et al. 2001"}
{"compound": "O=C(O)c1ccccc1O", "note": "[Salicylic acid]", "values": [{"measurement": "clearance of warts, % of patients", "result": 67, "unit": "%"}]}
